{"source": "patent US20110217715A1", "about": "“GENE EXPRESSION IN DUCHENNE MUSCULAR DYSTROPHY” (CHILDREN'S HOSPITAL MEDICAL CENTER, priority 2008, published 2011)", "system": "mRNA expression in peripheral blood of individuals with DMD", "experiment": "Whole-blood gene expression microarray: DMD administered deflazacort vs DMD administered prednisone", "assay_type": "in vivo, human", "experimental": "Fifteen ml of blood was collected from each individual into 6 PAXgene® Vacutainer® tubes (PreAnalytiX, Germany) by antecubital fossa venipuncture. PAXgene® tubes contain a proprietary reagent that immediately stabilizes RNA, thus reducing RNA degradation and minimizing gene expression changes following phlebotomy. The tubes were then inverted 20 times, then remained undisturbed for 2 h at room temperature (about 19° C. to about 22° C.), and then stored at -70° C. until processed. Total RNA was isolated using the Paxgene® blood RNA kit (PreAnalytiX, Germany) according to the manufacturers instructions. The RNA isolated is from all cells in whole blood. Typical yields of total RNA isolated from about 7.5 ml of human whole blood were between 10 μg RNA and 40 μg RNA. RNA quality and purity was analyzed by spectrophotometry using the Nanodrop ND-1000, and RNA integrity was analyzed using the Agilent 2100 Bioanalyzer. […] Sample labeling, hybridization to chips, and image scanning were performed using standard Affymetrix protocols. For each whole blood sample from control individuals and individuals with DMD, total RNA was labeled using the One-Cycle Target Labeling protocol and hybridized to the arrays. […] Double-stranded cDNA synthesis, biotin-labeled cRNA synthesis, and cRNA fragmentation were performed according to the Affymetrix GeneChip Eukaryotic Expression Analysis protocol. The labeled, fragmented cRNA (15 μg) was hybridized at 45° C. overnight. After hybridization, the array was washed and stained. The arrays were scanned with an argon-ion laser at λ=570 nm, with a resolution of 3 μm/pixel (Affymetrix, Inc.). After scanning the array, the raw probe level values for each probe were saved in Affymetrix.cel files. […] Statistical analyses, including t-test analyses, unsupervised hierarchical clustering, and principal component analyses were conducted using Genespring 7.2 software ([…]® 7, Silicon Genetics, Redwood City Calif.). […] Corrections for multiple comparisons used a Benjamini-Hochberg False Discovery Rate (FDR) of 0.05, disclosed in Tang et al., J Cereb Blood Flow Metab 26 (2006) 1089, which is expressly incorporated by reference herein in its entirety. […] Sample processing and array hybridization, probe-level data analysis, and statistical analysis were identical to Example 1.", "data": [{"smiles": "CC(=O)OCC(=O)[C@@]12N=C(C)O[C@@H]1C[C@H]1[C@@H]3CCC4=CC(=O)C=C[C@]4(C)[C@H]3[C@@H](O)C[C@@]12C", "note": "[deflazacort]", "values": [{"measurement": "p-value", "setting": "gene PECAM1, Genbank AA702701, Nucleic Acid No. 2155", "value": 0.00909}, {"measurement": "p-value", "setting": "gene PECAM1, Genbank M37780, Nucleic Acid No. 2154", "value": 0.00421}, {"measurement": "p-value", "setting": "gene PF4V1, Genbank NM_002620, Nucleic Acid No. 2156", "value": 0.0164}, {"measurement": "p-value", "setting": "gene PFKFB3, Genbank NM_004566, Nucleic Acid No. 2157", "value": 0.0338}, {"measurement": "p-value", "setting": "gene PHACTR2, Genbank AA551142, Nucleic Acid No. 2158", "value": 0.039}, {"measurement": "p-value", "setting": "gene PHACTR2, Genbank NM_014721, Nucleic Acid No. 2159", "value": 0.0451}, {"measurement": "p-value", "setting": "gene PHCA, Genbank R12678, Nucleic Acid No. 2160", "value": 0.0221}, {"measurement": "p-value", "setting": "gene PHF21A, Genbank BC015714, Nucleic Acid No. 2161", "value": 0.0231}, {"measurement": "p-value", "setting": "gene PHGDHL1, Genbank AF339764, Nucleic Acid No. 2162", "value": 0.0444}, {"measurement": "p-value", "setting": "gene PIAS1, Genbank AI732802, Nucleic Acid No. 2163", "value": 0.0349}, {"measurement": "p-value", "setting": "gene PICALM, Genbank AL135735, Nucleic Acid No. 2164", "value": 0.0165}, {"measurement": "p-value", "setting": "gene PICALM, Genbank AV722190, Nucleic Acid No. 762", "value": 0.0363}, {"measurement": "p-value", "setting": "gene PLEK, Genbank NM_002664, Nucleic Acid No. 2165", "value": 0.000252}, {"measurement": "p-value", "setting": "gene PLEKHA2, Genbank BF347859, Nucleic Acid No. 886", "value": 0.0183}, {"measurement": "p-value", "setting": "gene PLEKHM1, Genbank AB002354, Nucleic Acid No. 2166", "value": 0.0134}, {"measurement": "p-value", "setting": "gene PLSCR1, Genbank AI825926, Nucleic Acid No. 2167", "value": 0.0487}, {"measurement": "p-value", "setting": "gene PLXNB2, Genbank BC004542, Nucleic Acid No. 2168", "value": 0.0177}, {"measurement": "p-value", "setting": "gene PPGB, Genbank NM_000308, Nucleic Acid No. 2170", "value": 0.0193}, {"measurement": "p-value", "setting": "gene PPIG, Genbank AW970944, Nucleic Acid No. 2171", "value": 0.011}, {"measurement": "p-value", "setting": "gene PPM1F, Genbank BC013798, Nucleic Acid No. 2172", "value": 0.0208}, {"measurement": "p-value", "setting": "gene PPP3CA, Genbank AA532718, Nucleic Acid No. 2173", "value": 0.0165}, {"measurement": "p-value", "setting": "gene PRKACA, Genbank NM_002730, Nucleic Acid No. 2174", "value": 0.00184}, {"measurement": "p-value", "setting": "gene PRKAR1A, Genbank AI682905, Nucleic Acid No. 2175", "value": 0.0262}, {"measurement": "p-value", "setting": "gene PRKAR2B, Genbank NM_002736, Nucleic Acid No. 1688", "value": 0.0441}, {"measurement": "p-value", "setting": "gene PRKCD, Genbank NM_006254, Nucleic Acid No. 2176", "value": 0.0077}, {"measurement": "p-value", "setting": "gene PROK2, Genbank AF182069, Nucleic Acid No. 2177", "value": 0.0338}, {"measurement": "p-value", "setting": "gene PSENEN, Genbank NM_018468, Nucleic Acid No. 2178", "value": 0.0201}, {"measurement": "p-value", "setting": "gene PTGS1, Genbank NM_000962, Nucleic Acid No. 329 (first entry)", "value": 0.0419}, {"measurement": "p-value", "setting": "gene PTGS1, Genbank NM_000962, Nucleic Acid No. 329 (second entry)", "value": 0.0226}, {"measurement": "p-value", "setting": "gene PTGS1, Genbank S36219, Nucleic Acid No. 1667", "value": 0.0474}, {"measurement": "p-value", "setting": "gene PTGS2, Genbank AY151286, Nucleic Acid No. 2179", "value": 0.0187}, {"measurement": "p-value", "setting": "gene PTPN12, Genbank AL079909, Nucleic Acid No. 2180", "value": 0.00163}, {"measurement": "p-value", "setting": "gene PTPRE, Genbank AA775177, Nucleic Acid No. 2181", "value": 0.0161}, {"measurement": "p-value", "setting": "gene RAB8A, Genbank BC002977, Nucleic Acid No. 2185", "value": 0.00561}, {"measurement": "p-value", "setting": "gene RAB11FIP1, Genbank NM_025151, Nucleic Acid No. 2182", "value": 0.0397}, {"measurement": "p-value", "setting": "gene RAB11FIP4, Genbank BG248313, Nucleic Acid No. 465", "value": 0.047}, {"measurement": "p-value", "setting": "gene RAB18, Genbank AU145607, Nucleic Acid No. 2183", "value": 0.0414}, {"measurement": "p-value", "setting": "gene RAB31, Genbank NM_006868, Nucleic Acid No. 2184", "value": 0.0378}, {"measurement": "p-value", "setting": "gene RAC1, Genbank AJ012502, Nucleic Acid No. 551", "value": 0.0328}, {"measurement": "p-value", "setting": "gene RAI17, Genbank AF070622, Nucleic Acid No. 1313", "value": 0.0318}, {"measurement": "p-value", "setting": "gene RAP1A, Genbank AW793677, Nucleic Acid No. 2186", "value": 0.0194}, {"measurement": "p-value", "setting": "gene RAP80, Genbank AF113675, Nucleic Acid No. 2187", "value": 0.00717}, {"measurement": "p-value", "setting": "gene RARA, Genbank AJ417079, Nucleic Acid No. 2188", "value": 0.00262}, {"measurement": "p-value", "setting": "gene RASA1, Genbank AK021812, Nucleic Acid No. 2189", "value": 0.0372}, {"measurement": "p-value", "setting": "gene RBBP5, Genbank NM_005057, Nucleic Acid No. 2190", "value": 0.0383}, {"measurement": "p-value", "setting": "gene REL, Genbank NM_002908, Nucleic Acid No. 2191", "value": 0.0166}, {"measurement": "p-value", "setting": "gene RERE, Genbank H71242, Nucleic Acid No. 2192", "value": 0.0354}, {"measurement": "p-value", "setting": "gene RFWD2, Genbank BF725688, Nucleic Acid No. 2193", "value": 0.0334}, {"measurement": "p-value", "setting": "gene RFX2, Genbank AK024288, Nucleic Acid No. 2194", "value": 0.0472}, {"measurement": "p-value", "setting": "gene RG9MTD3, Genbank AI214944, Nucleic Acid No. 2195", "value": 0.0449}, {"measurement": "p-value", "setting": "gene RHOQ, Genbank BC033251, Nucleic Acid No. 2196", "value": 0.0402}, {"measurement": "p-value", "setting": "gene RIN3, Genbank AA625133, Nucleic Acid No. 2197", "value": 0.0322}, {"measurement": "p-value", "setting": "gene RIT1, Genbank AL037450, Nucleic Acid No. 1675", "value": 0.0214}, {"measurement": "p-value", "setting": "gene RNF24, Genbank BC000213, Nucleic Acid No. 2198", "value": 0.0415}, {"measurement": "p-value", "setting": "gene ROCK1, Genbank AL050032, Nucleic Acid No. 2199", "value": 0.0356}, {"measurement": "p-value", "setting": "gene RSU1, Genbank AW515913, Nucleic Acid No. 2200", "value": 0.0152}, {"measurement": "p-value", "setting": "gene RUFY1, Genbank NM_025158, Nucleic Acid No. 2201", "value": 0.0258}, {"measurement": "p-value", "setting": "gene RUFY2, Genbank NM_017987, Nucleic Acid No. 2202", "value": 0.00853}, {"measurement": "p-value", "setting": "gene SEC14L1, Genbank NM_003003, Nucleic Acid No. 2203", "value": 0.0303}, {"measurement": "p-value", "setting": "gene SEC23B, Genbank BC005032, Nucleic Acid No. 2204", "value": 0.0301}, {"measurement": "p-value", "setting": "gene SECTM1, Genbank BF939675, Nucleic Acid No. 2205", "value": 0.0499}, {"measurement": "p-value", "setting": "gene SERPINA1, Genbank AF119873, Nucleic Acid No. 2207", "value": 0.0459}, {"measurement": "p-value", "setting": "gene SERPINA1, Genbank NM_000295, Nucleic Acid No. 2206", "value": 0.022}, {"measurement": "p-value", "setting": "gene SF3A2, Genbank L21990, Nucleic Acid No. 2208", "value": 0.0469}, {"measurement": "p-value", "setting": "gene SGK, Genbank NM_005627, Nucleic Acid No. 2209", "value": 0.028}, {"measurement": "p-value", "setting": "gene SH3BGRL2, Genbank AL035700, Nucleic Acid No. 1736", "value": 0.0258}, {"measurement": "p-value", "setting": "gene pp9099, Genbank NM_025201, Nucleic Acid No. 2169", "value": 0.0311}, {"measurement": "number of genes significantly up-regulated", "setting": "of the 508 genes, deflazacort compared to prednisone", "value": 30, "unit": "genes"}]}]}
